# Assay results taken from patent US20250145585A1, “HETEROCYCLIC INHIBITORS OF IGF-1R FOR TREATMENT OF DISEASE” (HORIZON THERAPEUTICS IRELAND DAC, priority 2023, published 2025).
# pIC50: −log10 of the molar value.
# Target: T1, IGF-1R (Homo sapiens, UniProt P08069)
# T1 construct: expressed in transfected cells
# Assay: Example B-2: IGF-1R Assay (PathHunter cell lines, EC80 agonist challenge, chemiluminescent detection)
# Type: cell-based
# Settings: PathHunter cells, compound 60 minutes at 37° C., EC80 agonist 3 hours; read-out: IC50, Biological Activity against IGF-1R (Table B2)
# Outline: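 PathHunter cells were pre-incubated with compound for 60 min at 37° C (1% vehicle), then challenged with EC80 agonist for 3 h at room temperature. Chemiluminescent detection after 1 h gave % inhibition relative to EC80 and vehicle controls, from which IC50 was derived.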
# T1 sequence (P08069 31-1367): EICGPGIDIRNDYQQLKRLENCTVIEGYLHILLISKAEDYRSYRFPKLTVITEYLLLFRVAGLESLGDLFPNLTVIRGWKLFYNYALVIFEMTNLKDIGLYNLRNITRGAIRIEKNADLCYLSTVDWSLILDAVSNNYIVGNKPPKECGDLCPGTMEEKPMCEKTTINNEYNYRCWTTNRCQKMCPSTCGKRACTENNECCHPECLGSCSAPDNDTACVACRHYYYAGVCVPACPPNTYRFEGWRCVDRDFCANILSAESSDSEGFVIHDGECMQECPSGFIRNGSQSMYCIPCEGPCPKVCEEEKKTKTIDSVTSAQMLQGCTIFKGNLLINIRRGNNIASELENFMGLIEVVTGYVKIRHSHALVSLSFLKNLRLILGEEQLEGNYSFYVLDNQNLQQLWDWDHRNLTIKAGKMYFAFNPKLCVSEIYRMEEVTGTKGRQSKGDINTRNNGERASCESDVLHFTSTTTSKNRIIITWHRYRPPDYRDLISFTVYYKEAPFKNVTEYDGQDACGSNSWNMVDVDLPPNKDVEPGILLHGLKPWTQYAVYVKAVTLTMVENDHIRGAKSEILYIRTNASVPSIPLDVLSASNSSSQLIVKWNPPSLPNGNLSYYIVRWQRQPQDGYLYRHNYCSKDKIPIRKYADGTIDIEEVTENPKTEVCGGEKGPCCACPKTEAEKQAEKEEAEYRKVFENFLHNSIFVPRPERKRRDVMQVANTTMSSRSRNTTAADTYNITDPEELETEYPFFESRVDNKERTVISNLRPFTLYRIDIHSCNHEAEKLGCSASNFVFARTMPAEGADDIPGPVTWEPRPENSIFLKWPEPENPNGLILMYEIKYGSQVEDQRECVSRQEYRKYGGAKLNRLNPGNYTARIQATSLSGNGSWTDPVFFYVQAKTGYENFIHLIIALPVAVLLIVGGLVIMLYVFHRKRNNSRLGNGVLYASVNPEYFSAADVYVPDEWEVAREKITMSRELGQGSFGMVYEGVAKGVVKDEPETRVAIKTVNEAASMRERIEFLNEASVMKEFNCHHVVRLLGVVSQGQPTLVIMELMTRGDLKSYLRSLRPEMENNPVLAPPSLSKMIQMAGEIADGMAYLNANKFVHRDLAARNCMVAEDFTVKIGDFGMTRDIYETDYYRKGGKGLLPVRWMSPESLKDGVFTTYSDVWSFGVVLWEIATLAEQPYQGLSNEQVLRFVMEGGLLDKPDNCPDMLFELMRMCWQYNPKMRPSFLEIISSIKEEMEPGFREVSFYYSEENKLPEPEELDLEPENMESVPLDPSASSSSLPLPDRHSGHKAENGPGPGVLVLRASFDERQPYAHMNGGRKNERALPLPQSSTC
row,SMILES,pIC50
1,"COC(C)(C)CNc1cc(CN2C(=O)N(c3ccc4c(c3)N(S(C)(=O)=O)CC43CCC3)C(=O)C2(C)C)ccn1 [Compound 235, 1-((2-((2-methoxy-2-methylpropyl)amino)pyridin-4-yl)methyl)-5,5-dimethyl-3-(1′-(methylsulfonyl)spiro[cyclobutane-1,3′-indolin]-6′-yl)imidazolidine-2,4-dione]",5.70 to 6.30
2,"CC1(C)C(=O)N(c2ccc3c(c2)N(S(C)(=O)=O)CC32CCC2)C(=O)N1Cc1ccnc(N[C@@H]2C[C@@H]2F)c1 [Compound 240, 1-((2-(((1R,2S)-2-fluorocyclopropyl)amino)pyridin-4-yl)methyl)-5,5-dimethyl-3-(1′-(methylsulfonyl)spiro[cyclobutane-1,3′-indolin]-6′-yl)imidazolidine-2,4-dione]",≥ 6.30
3,"CC1(C)CN(S(C)(=O)=O)c2cc(N3C(=O)N(Cc4ccnc(N[C@H]5CCOC[C@@H]5F)c4)C(C)(C)C3=O)ccc21 [Compound 241, 3-(3,3-dimethyl-1-(methylsulfonyl)indolin-6-yl)-1-((2-(((3R,4S)-3-fluorotetrahydro-2H-pyran-4-yl)amino)pyridin-4-yl)methyl)-5,5-dimethylimidazolidine-2,4-dione]",≥ 6.30
4,"C[C@@H](Nc1cc(CN2C(=O)N(c3ccc4c(c3)N(S(C)(=O)=O)CC43CCC3)C(=O)C2(C)C)ccn1)c1cccnc1 [Compound 242, (R)-5,5-dimethyl-3-(1′-(methylsulfonyl)spiro[cyclobutane-1,3′-indolin]-6′-yl)-1-((2-((1-(pyridin-3-yl)ethyl)amino)pyridin-4-yl)methyl)imidazolidine-2,4-dione]",≥ 6.30
5,"C[C@H](Nc1cc(CN2C(=O)N(c3ccc4c(c3)N(S(C)(=O)=O)CC43CCC3)C(=O)C2(C)C)ccn1)c1cccnc1 [Compound 243, (S)-5,5-dimethyl-3-(1′-(methylsulfonyl)spiro[cyclobutane-1,3′-indolin]-6′-yl)-1-((2-((1-(pyridin-3-yl)ethyl)amino)pyridin-4-yl)methyl)imidazolidine-2,4-dione]",≥ 6.30
6,"CC1(C)C(=O)N(c2ccc3c(c2)N(S(C)(=O)=O)CC32CCC2)C(=O)N1Cc1ccnc(NCc2cccnc2)c1 [Compound 244, 5,5-dimethyl-3-(1′-(methylsulfonyl)spiro[cyclobutane-1,3′-indolin]-6′-yl)-1-((2-((pyridin-3-ylmethyl)amino)pyridin-4-yl)methyl)imidazolidine-2,4-dione]",≥ 6.30
7,"CC1(C)CN(S(C)(=O)=O)c2cc(N3C(=O)N(Cc4ccnc(NCc5cc[nH]n5)c4)C(C)(C)C3=O)ccc21 [Compound 245, 1-((2-(((1H-pyrazol-3-yl)methyl)amino)pyridin-4-yl)methyl)-3-(3,3-dimethyl-1-(methylsulfonyl)indolin-6-yl)-5,5-dimethylimidazolidine-2,4-dione]",≥ 6.30
8,"Cn1ccc(CNc2cc(CN3C(=O)N(c4ccc5c(c4)N(S(C)(=O)=O)CC5(C)C)C(=O)C3(C)C)ccn2)n1 [Compound 246, 3-(3,3-dimethyl-1-(methylsulfonyl)indolin-6-yl)-5,5-dimethyl-1-((2-(((1-methyl-1H-pyrazol-3-yl)methyl)amino)pyridin-4-yl)methyl)imidazolidine-2,4-dione]",≥ 6.30
9,"[2H]C([2H])([2H])Nc1cc(CN2C(=O)N(c3ccc4c(c3)N(S(C)(=O)=O)CC4(C)C)C(=O)C2(C)C)ccn1 [Compound 247, 3-(3,3-dimethyl-1-(methylsulfonyl)indolin-6-yl)-5,5-dimethyl-1-((2-((methyl-d3)amino)pyridin-4-yl)methyl)imidazolidine-2,4-dione]",≥ 6.30
10,"CC1(C)CN(S(=O)(=O)C2CC2)c2cc(N3C(=O)N(Cc4ccnc(NC5CCOCC5)c4)C(C)(C)C3=O)ccc21 [Compound 248, 3-(1-(cyclopropylsulfonyl)-3,3-dimethylindolin-6-yl)-5,5-dimethyl-1-((2-((tetrahydro-2H-pyran-4-yl)amino)pyridin-4-yl)methyl)imidazolidine-2,4-dione]",≥ 6.30
11,"CC1(C)Cc2ccc(N3C(=O)N(Cc4ccnc(N[C@H]5[C@@H]6COC[C@@H]65)c4)C(C)(C)C3=O)cc2O1 [Compound 249, 1-((2-(((1R,5S,6r)-3-oxabicyclo[3.1.0]hexan-6-yl)amino)pyridin-4-yl)methyl)-3-(2,2-dimethyl-2,3-dihydrobenzofuran-6-yl)-5,5-dimethylimidazolidine-2,4-dione]",≥ 6.30
12,"CC1(C)C(=O)N(c2ccc3c(c2)CCS3(=O)=O)C(=O)N1Cc1ccnc(N[C@H]2[C@@H]3COC[C@@H]32)c1 [Compound 250, 1-((2-(((1R,5S,6r)-3-oxabicyclo[3.1.0]hexan-6-yl)amino)pyridin-4-yl)methyl)-3-(1,1-dioxido-2,3-dihydrobenzo[b]thiophen-5-yl)-5,5-dimethylimidazolidine-2,4-dione]",< 5.00
13,"CC1(C)C(=O)N(c2ccc3c(c2)N(S(C)(=O)=O)CC3)C(=O)N1Cc1ccnc(N[C@H]2[C@@H]3COC[C@@H]32)c1 [Compound 251, 1-((2-(((1R,5S,6r)-3-oxabicyclo[3.1.0]hexan-6-yl)amino)pyridin-4-yl)methyl)-5,5-dimethyl-3-(1-(methylsulfonyl)indolin-6-yl)imidazolidine-2,4-dione]",< 5.00
14,"CC1(C)C(=O)N(c2ccc3c(c2)N(C(=O)C2CC2)CC3)C(=O)N1Cc1ccnc(N[C@H]2[C@@H]3COC[C@@H]32)c1 [Compound 252, 1-((2-(((1R,5S,6r)-3-oxabicyclo[3.1.0]hexan-6-yl)amino)pyridin-4-yl)methyl)-3-(1-(cyclopropanecarbonyl)indolin-6-yl)-5,5-dimethylimidazolidine-2,4-dione]",< 5.00

# Continued, values first:
row,pIC50,SMILES
1,≥ 6.30,"CC1(C)COc2cc(N3C(=O)N(Cc4ccnc(N[C@H]5[C@@H]6COC[C@@H]65)c4)C(C)(C)C3=O)ccc21 [Compound 229, 1-((2-(((1R,5S,6r)-3-oxabicyclo[3.1.0]hexan-6-yl)amino)pyridin-4-yl)methyl)-3-(3,3-dimethyl-2,3-dihydrobenzofuran-6-yl)-5,5-dimethylimidazolidine-2,4-dione]"
2,≥ 6.30,"C[C@@H](CC#N)Nc1cc(CN2C(=O)N(c3ccc4c(c3)N(S(C)(=O)=O)CC43CC3)C(=O)C2(C)C)ccn1 [Compound 230, (S)-3-((4-((5,5-dimethyl-3-(1′-(methylsulfonyl)spiro[cyclopropane-1,3′-indolin]-6′-yl)-2,4-dioxoimidazolidin-1-yl)methyl)pyridin-2-yl)amino)butanenitrile]"
3,≥ 6.30,"CC1(C)C(=O)N(c2ccc3c(c2)N(C(=O)C2CC2)CC32CC2)C(=O)N1Cc1ccnc(N[C@H]2[C@@H]3COC[C@@H]32)c1 [Compound 231, 1-((2-((1R,5S,6r)-3-oxabicyclo[3.1.0]hexan-6-ylamino)pyridin-4-yl)methyl)-3-(1′-(cyclopropanecarbonyl)spiro[cyclopropane-1,3′-indolin]-6′-yl)-5,5-dimethylimidazolidine-2,4-dione]"
4,≥ 6.30,"CC1(C)C(=O)N(c2ccc3c(c2)N(S(C)(=O)=O)CC32CCC2)C(=O)N1Cc1ccnc(NCC2CC2(F)F)c1 (stereo not drawn) [Compound 232, 1-((2-(((2,2-difluorocyclopropyl)methyl)amino)pyridin-4-yl)methyl)-5,5-dimethyl-3-(1′-(methylsulfonyl)spiro[cyclobutane-1,3′-indolin]-6′-yl)imidazolidine-2,4-dione]"
5,≥ 6.30,"CC1(C)C(=O)N(c2ccc3c(c2)N(S(C)(=O)=O)CC32CCC2)C(=O)N1Cc1ccnc(NCC23CCC(CC2)OC3)c1 [Compound 233, 1-((2-(((2-oxabicyclo[2.2.2]octan-4-yl)methyl)amino)pyridin-4-yl)methyl)-5,5-dimethyl-3-(1′-(methylsulfonyl)spiro[cyclobutane-1,3′-indolin]-6′-yl)imidazolidine-2,4-dione]"
6,≥ 6.30,"CC1(C)C(=O)N(c2ccc3c(c2)N(C(=O)C2CC2)CC32CCC2)C(=O)N1Cc1ccnc(NC2C3COCC32)c1 (stereo not drawn) [Compound 234, 1-((2-((3-oxabicyclo[3.1.0]hexan-6-yl)amino)pyridin-4-yl)methyl)-3-(1′-(cyclopropanecarbonyl)spiro [cyclobutane-1,3′-indolin]-6′-yl)-5,5-dimethylimidazolidine-2,4-dione]"
7,≥ 6.30,"CC1(C)C(=O)N(c2ccc3c(c2)N(C(=O)C2CC2)CC32CCC2)C(=O)N1Cc1ccnc(N[C@H]2CCOC2)c1 [Compound 236, (S)-3-(1′-(cyclopropanecarbonyl)spiro [cyclobutane-1,3′-indolin]-6′-yl)-5,5-dimethyl-1-((2-((tetrahydrofuran-3-yl)amino)pyridin-4-yl)methyl)imidazolidine-2,4-dione]"
8,≥ 6.30,"CC1(C)C(=O)N(c2ccc3c(c2)N(C(=O)C2CC2)CC32CCC2)C(=O)N1Cc1ccnc(NC2CCOCC2)c1 [Compound 237, 3-(1′-(cyclopropanecarbonyl)spiro [cyclobutane-1,3′-indolin]-6′-yl)-5,5-dimethyl-1-((2-((tetrahydro-2H-pyran-4-yl)amino)pyridin-4-yl)methyl)imidazolidine-2,4-dione]"
9,≥ 6.30,"CO[C@@H](C)CNc1cc(CN2C(=O)N(c3ccc4c(c3)N(S(C)(=O)=O)CC43CCC3)C(=O)C2(C)C)ccn1 [Compound 238, (S)-1-((2-((2-methoxypropyl)amino)pyridin-4-yl)methyl)-5,5-dimethyl-3-(1′-(methylsulfonyl)spiro[cyclobutane-1,3′-indolin]-6′-yl)imidazolidine-2,4-dione]"
10,≥ 6.30,"CO[C@H](C)CNc1cc(CN2C(=O)N(c3ccc4c(c3)N(S(C)(=O)=O)CC43CCC3)C(=O)C2(C)C)ccn1 [Compound 239, (R)-1-((2-((2-methoxypropyl)amino)pyridin-4-yl)methyl)-5,5-dimethyl-3-(1′-(methylsulfonyl)spiro[cyclobutane-1,3′-indolin]-6′-yl)imidazolidine-2,4-dione]"
